From US20100004250A1, “PTERIDINE DERIVATIVES AS POLO-LIKE KINASE INHIBITORS USEFUL IN THE TREATMENT OF CANCER” (CHROMA THERAPEUTICS LTD., priority 2006, published 2010)

Columns and labels:
HCT 116 cell line = experiment: Cell inhibition assay (WST-1 proliferation); assay type: cell-based; details: Homo sapiens, 120 hrs incubation, read-out: Inhibitor Activity vs HCT 116 cell line
Description: Cells were seeded in 96W tissue culture plates (1 well=30 mm^2) at a density of 500 cells per well in 50 μl of the appropriate culture medium (see below). 24 hrs later 50 μl of the compound prepared in the same medium was added as 4 fold dilutions to give final concentrations in the range 0.15 nM-2500 nM (n=6 for each concentration). The plates were then incubated at 37° C., 5% CO2 for 120 hrs. Cell proliferation was assessed using WST-1 (a metabolic indicator dye, Roche Cat no. 1 644 807) according to the manufacturers instructions. The results were calculated as percentage of vehicle response and IC50 values represent the concentration of compound that inhibited the vehicle response by 50%.
HCT-116 Culture Medium—Dulbeccos MEM (Sigma D6546) plus 10% heat inactivated fetal calf serum (Hyclone SH30071 Thermo Fischer Scientific) containing 2 mM Glutamine (Sigma cat no G-7513) and 50 U/ml Penicillin and Streptomycin Sulphate (Sigma Cat no P-0781).

PLK1 = biological target: T1, PLK1 (Homo sapiens, UniProt P53350); experiment: PLK1 enzyme assay (Z'-LYTE, Invitrogen); assay type: biochemical; details: ATP at or close to Km, 60 minute kinase reaction; read-out: Inhibitor Activity vs PLK1
T1 construct: purchased Invitrogen (Paisley, UK), assay service
Description: The ability of compounds to inhibit PLK-1 kinase activity was measured in an assay performed by Invitrogen (Paisley, UK). The Z′-LYTE™ biochemical assay employs a fluorescence-based, coupled-enzyme format and is based on the differential sensitivity of phosphorylated and non-phosphorylated peptides to proteolytic cleavage. The peptide substrate is labelled with two fluorophores—one at each end—that make up a FRET pair. In the primary reaction, the kinase transfers the gamma-phosphate of ATP to a single serine or threonine residue in a synthetic FRET-peptide. In the secondary reaction, a site-specific protease recognizes and cleaves non-phosphorylated FRET-peptides. Phosphorylation of FRET-peptides suppresses cleavage by the Development Reagent. Cleavage disrupts FRET between the donor (i.e., coumarin) and acceptor (i.e., fluorescein) fluorophores on the FRET-peptide, whereas uncleaved, phosphorylated FRET-peptides maintain FRET. A […] method, which calculates the ratio (the Emission Ratio) of donor emission to acceptor emission after excitation of the donor fluorophore at 400 nm, is used to quantitate reaction progress.
The final 10 μl Kinase Reaction consists of 2.8-25.3 ng PLK1, 2 μM Ser/Thr 16 Peptide substrate and ATP in 50 mM HEPES pH 7.5, 0.01% BRIJ-35, 10 mM MgCl2, 1 mM EGTA. The assay is performed at an ATP concentration at, or close to, the Km. After the 60 minute Kinase Reaction incubation at room temperature, 5 μl of a 1:8 dilution of Development Reagent is added. The assay plate is incubated for a further 60 minutes at room temperature and read on a fluorescence plate reader.
Duplicate data points are generated from a ⅓ log dilution series of a stock solution of test compound in DMSO. Nine dilutions steps are made from a top concentration of 10 μM, and a “no compound” blank is included. Data is collected and analysed using XLfit software from IDBS. The dose response curve is curve fitted to model number 205 (sigmoidal dose-response model). From the curve generated, the concentration giving 50% inhibition is determined and reported.

T1 sequence (P53350 whole entry): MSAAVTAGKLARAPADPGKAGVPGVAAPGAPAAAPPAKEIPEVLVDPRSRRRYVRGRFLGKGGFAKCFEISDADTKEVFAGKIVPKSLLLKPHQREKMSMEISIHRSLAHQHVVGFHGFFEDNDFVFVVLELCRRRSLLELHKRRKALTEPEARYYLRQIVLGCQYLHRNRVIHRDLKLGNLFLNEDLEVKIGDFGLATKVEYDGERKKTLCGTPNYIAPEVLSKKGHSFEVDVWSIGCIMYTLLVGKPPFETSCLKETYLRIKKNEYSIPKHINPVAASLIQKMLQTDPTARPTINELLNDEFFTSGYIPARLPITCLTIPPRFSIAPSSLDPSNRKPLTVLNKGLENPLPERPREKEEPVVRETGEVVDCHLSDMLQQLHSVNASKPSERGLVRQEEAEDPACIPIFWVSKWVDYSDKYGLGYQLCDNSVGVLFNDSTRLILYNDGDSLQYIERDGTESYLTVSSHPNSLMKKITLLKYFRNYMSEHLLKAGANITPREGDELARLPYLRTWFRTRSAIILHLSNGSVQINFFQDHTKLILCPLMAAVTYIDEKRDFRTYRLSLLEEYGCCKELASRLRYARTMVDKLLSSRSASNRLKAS

| IC50 (HCT 116 cell line) [nM] | IC50 (PLK1) [nM] | Compound |
| --- | --- | --- |
| – | < 100 | CC[C@@H]1C(=O)N(C)c2cnc(Nc3ccc(C(=O)NC4CCN(CCCC(=O)N[C@@H](C(=O)O)C5CCCCC5)CC4)cc3OC)nc2N1C1CCCC1 [Example 22, (2R)-Cyclohexyl[(4-{4-[(4-{[(7R)-8-cyclopentyl-7-ethyl-5-methyl-6-oxo-5,6,78-tetrahydropteridin-2-yl]amino}-3-methoxybenzoyl)amino]piperidin-1-yl}butanoyl)amino]acetic acid] |
| – | < 100 | CC[C@@H]1C(=O)N(C)c2cnc(Nc3ccc(C(=O)NC4CCN(CCCCC(=O)N[C@@H](CC(C)C)C(=O)O)CC4)cc3OC)nc2N1C1CCCC1 [Example 23, N-(5-[4-[(4-{[(7R)-8-Cyclopentyl-7-ethyl-5-methyl-6-oxo-5,6,7,8-tetrahydropteridin-2-yl]amino}-3-methoxybenzoyl)amino]piperidin-1-yl]pentanoyl)-L-leucine] |
| – | < 100 | CC[C@@H]1C(=O)N(C)c2cnc(Nc3ccc(C(=O)NC4CCN(CC(=O)N[C@@H](CC(C)C)C(=O)O)CC4)cc3OC)nc2N1C1CCCC1 [Example 24, N-({4-[(4-{[(7R)-8-Cyclopentyl-7-ethyl-5-methyl-6-oxo-5,6,7,8-tetrahydropteridin-2-yl]amino}-3-methoxybenzoyl)amino]piperidin-1-yl}acetyl)-L-leucine] |
| – | < 100 | CC[C@@H]1C(=O)N(C)c2cnc(Nc3ccc(C(=O)NC4CCN(CCNC(=O)N[C@H](C(=O)O)C5CCCCC5)CC4)cc3OC)nc2N1C1CCCC1 [Example 25, (2S)-Cyclohexyl{[(2-{4-[(4-{[(7R)-8-cyclopentyl-7-ethyl-5-methyl-6-oxo-5,6,7,8-tetrahydropteridin-2-yl]amino}-3-methoxybenzoyl)amino]piperidin-1-yl}ethyl)carbamoyl]amino}acetic acid] |
| – | < 100 | CC[C@@H]1C(=O)N(C)c2cnc(Nc3ccc(C(=O)Nc4ccc(CCCC(=O)N[C@@H](CC(C)C)C(=O)O)cc4)cc3OC)nc2N1C1CCCC1 [Example 26, N-(4-{4-[(4-{[(7R)-8-Cyclopentyl-7-ethyl-5-methyl-6-oxo-5,6,7,8-tetrahydropteridin-2-yl]amino}-3-methoxybenzoyl)amino]phenyl}butanoyl)-L-leucine] |
| – | < 100 | CC[C@@H]1C(=O)N(C)c2cnc(Nc3ccc(C(=O)NCCCC(=O)N[C@@H](CC(C)C)C(=O)O)cc3OC)nc2N1C1CCCC1 [Example 27, N-{4-[(4-{[(7R)-8-Cyclopentyl-7-ethyl-5-methyl-6-oxo-5,6,7,8-tetrahydropteridin-2-yl]amino}-3-methoxybenzoyl)amino]butanoyl}-L-leucine] |
| – | < 100 | CC[C@@H]1C(=O)N(C)c2cnc(Nc3ccc(/C=C/CCCC(=O)N[C@@H](CC(C)C)C(=O)O)cc3F)nc2N1C1CCCC1 [Example 28, N-[(5E)-6-(4-{[(7R)-8-Cyclopentyl-7-ethyl-5-methyl-6-oxo-5,6,7,8-tetrahydropteridin-2-yl]amino}-3-fluorophenyl)hex-5-enoyl]-L-leucine] |
| – | < 100 | CC[C@@H]1C(=O)N(C)c2cnc(Nc3ccc(CCCCCC(=O)N[C@@H](CC(C)C)C(=O)O)cc3F)nc2N1C1CCCC1 [Example 29, N-[6-(4-{[(7R)-8-Cyclopentyl-7-ethyl-5-methyl-6-oxo-5,6,7,8-tetrahydropteridin-2-yl]amino}-3-fluorophenyl)hexanoyl]-L-leucine] |
| – | < 100 | CC[C@@H]1C(=O)N(C)c2cnc(Nc3c(F)cc(/C=C/CCCC(=O)N[C@@H](CC(C)C)C(=O)O)cc3F)nc2N1C1CCCC1 [Example 30, N-[(5E)-6-(4-{[(7R)-8-Cyclopentyl-7-ethyl-5-methyl-6-oxo-5,6,7,8-tetrahydropteridin-2-yl]amino}-3,5-difluorophenyl)hex-5-enoyl]-L-leucine] |
| – | < 100 | CC[C@@H]1C(=O)N(C)c2cnc(Nc3ccc(C(=O)N[C@H]4CC[C@@H](CCC(=O)N[C@@H](CC(C)C)C(=O)O)CC4)cc3OC)nc2N1C1CCCC1 [Example 31, N-(3-{cis-4-[(4-{[(7R)-8-Cyclopentyl-7-ethyl-5-methyl-6-oxo-5,6,7,8-tetrahydropteridin-2-yl]amino}-3-methoxybenzoyl)amino]cyclohexyl}propanoyl)-L-leucine] |

Further lines, the molecule ahead of its results:

| Compound | IC50 (HCT 116 cell line) [nM] | IC50 (PLK1) [nM] |
| --- | --- | --- |
| CC[C@@H]1C(=O)N(C)c2cnc(Nc3ccc(C(=O)NC4CCN(CCCC(=O)N[C@@H](CC(C)C)C(=O)OC5CCCC5)CC4)cc3OC)nc2N1C1CCCC1 [Example 1, Cyclopentyl N-(4-{4-[(4-{[(7R)-8-cyclopentyl-7-ethyl-5-methyl-6-oxo-5,6,7,8-tetrahydropteridin-2-yl]amino}-3-methoxybenzoyl)amino]piperidin-1-yl}butanoyl)-L-leucinate] | < 100 | < 100 |
| CC[C@@H]1C(=O)N(C)c2cnc(Nc3ccc(C(=O)NC4CCN(CCCC(=O)N[C@H](CC(C)C)C(=O)OC5CCCC5)CC4)cc3OC)nc2N1C1CCCC1 [Example 2, Cyclopentyl N-(4-{4-[(4-{[(7R)-8-cyclopentyl-7-ethyl-5-methyl-6-oxo-5,6,7,8-tetrahydropteridin-2-yl]amino}-3-methoxybenzoyl)amino]piperidin-1-yl}butanoyl)-D-leucinate] | < 100 | < 100 |
| CC[C@@H]1C(=O)N(C)c2cnc(Nc3ccc(C(=O)NC4CCN(CCCC(=O)N[C@H](C(=O)OC5CCCC5)c5ccccc5)CC4)cc3OC)nc2N1C1CCCC1 [Example 3, Cyclopentyl (2S)-[(4-{4-[(4-{[(7R)-8-cyclopentyl-7-ethyl-5-methyl-6-oxo-5,6,7,8-tetrahydropteridin-2-yl]amino}-3-methoxybenzoyl)amino]piperidin-1-yl}butanoyl)amino](Phenyl)acetate] | < 100 | < 100 |
| CC[C@@H]1C(=O)N(C)c2cnc(Nc3ccc(C(=O)NC4CCN(CCCC(=O)N[C@@H](CC(C)C)C(=O)O)CC4)cc3OC)nc2N1C1CCCC1 [Example 18, N-(4-{4-[(4-{[(7R)-8-Cyclopentyl-7-ethyl-5-methyl-6-oxo-5,6,7,8-tetrahydropteridin-2-yl]amino}-3-methoxybenzoyl)amino]piperidin-1-yl}butanoyl)-L-leucine] | – | < 100 |
| CC[C@@H]1C(=O)N(C)c2cnc(Nc3ccc(C(=O)NC4CCN(CCCC(=O)N[C@H](CC(C)C)C(=O)O)CC4)cc3OC)nc2N1C1CCCC1 [Example 19, N-(4-{4-[(4-{[(7R)-8-Cyclopentyl-7-ethyl-5-methyl-6-oxo-5,6,7,8-tetrahydropteridin-2-yl]amino}-3-methoxybenzoyl)amino]Piperidin-1-yl}butanoyl)-D-leucine] | – | < 100 |
| CC[C@@H]1C(=O)N(C)c2cnc(Nc3ccc(C(=O)NC4CCN(CCCC(=O)N[C@H](C(=O)O)c5ccccc5)CC4)cc3OC)nc2N1C1CCCC1 [Example 20, (2S)-[(4-{4-[(4-{[(7R)-8-Cyclopentyl-7-ethyl-5-methyl-6-oxo-5,6,7,8-tetrahydropteridin-2-yl]amino}-3-methoxybenzoyl)amino]piperidin-1-yl}butanoyl)amino](phenyl)acetic acid] | – | < 100 |
| CC[C@@H]1C(=O)N(C)c2cnc(Nc3ccc(C(=O)NC4CCN(CCCC(=O)N[C@@H](C(=O)O)c5ccccc5)CC4)cc3OC)nc2N1C1CCCC1 [Example 21, (2R)-[(4-{4-[(4-{[(7R)-8-Cyclopentyl-7-ethyl-5-methyl-6-oxo-5,6,7,8-tetrahydropteridin-2-yl]amino}-3-methoxybenzoyl)amino]piperidin-1-yl}butanoyl)amino](phenyl)acetic acid] | – | < 100 |
